Source: patent US20090047221A1 (NIPRI LIMITED, priority 2004, published 2009)

Tested on: cancer cell line MDA-MB-468
Assay: Combination index with known cancer drugs against proliferation (Calcusyn software)
Type: cell-based
Description: A combination index of less than 0.1 indicates very strong synergy; a combination index of 0.1 to 0.3 indicates strong synergism; a combination index of 0.3 to 0.7 indicates synergism; a combination index of 0.7 to 0.85 indicates moderate synergism; a combination index of 0.85 to 0.9 indicates slight synergism and a combination index of 0.9 to 1.1 indicates only very slight synergism, said combination being close to merely additive.
The combination index may be calculated using calcusyn software.
Evidence of synergy was determined by calculation of the combination index using Calcusyn software.
The MTT assay was used initially to determine the anti-proliferative activity of the test compounds. In the MTT assay a yellow thiazolyl blue tetrazolium bromide salt (MTT) is reduced, in metabolically active cells, to form insoluble purple formazan crystals which are solubilised by the addition of dimethyl sulphoxide (DMSO). Absorbance readings can then be determined spectrophotometrically and a relationship established between control untreated cells and drug treated cells enabling the quantification of anti-proliferative changes as a result of drug treatment (Mosmann, 1983).
Wells containing medium only were used as blanks. Following the attachment period, cells were treated with appropriate drug concentrations (20 μl added per well). 40 mg/ml stock drug solutions, in DMSO, were stored at −20° C. and on the day of drug treatment working solutions of 4 mg/ml were prepared in medium which was further diluted to achieve final drug dilution volumes of 20 μl. Initial screening was determined over a concentration range of 1-200 μg/ml. For potent compounds the assay was repeated over a narrower concentration range to determine accurate IC50 values. Cells were exposed to drug for 96 h continual exposure (37° C., 5% CO2). Following the 96 h incubation, 50 μl MTT solution (1 g MTT/500 ml PBS) was added per well and the plates were further incubated for 4 h (37° C., 5% CO2). After incubation the MTT and medium was removed from the wells and 100 μl DMSO added per well. Plates were agitated on an orbital mixer platform (Stuart Scientific) for 10 minutes. Absorbance was measured at 570 nm on a Biotrak II (Amersham Bioscience) plate reader. IC50 values were calculated comparing control and drug treated cells.

CC(C)CC(NC(=O)c1ccc2c(c1O)C(=O)OC(C)C2)C(=O)OC(C)(C)C (mixture of isomers) [ALM-55, Leucine Tert-Butyl Ester Amide]
Combination Index (Cisplatin 1 × 10^−2 mol/L, ALM compound 0.1 μg/ml): 0.003 | Combination Index (Cisplatin 1 × 10^−2 mol/L, ALM compound 0.5 μg/ml): 0.009 | Combination Index (Cisplatin 1 × 10^−2 mol/L, ALM compound 1.0 μg/ml): 0.023 | Combination Index (Cisplatin 1 × 10^−2 mol/L, ALM compound 5.0 μg/ml): 0.11 | Combination Index (Cisplatin 1 × 10^−3 mol/L, ALM compound 0.1 μg/ml): 0.031 | Combination Index (Cisplatin 1 × 10^−3 mol/L, ALM compound 0.5 μg/ml): No | Combination Index (Cisplatin 1 × 10^−3 mol/L, ALM compound 1.0 μg/ml): No | Combination Index (Cisplatin 1 × 10^−3 mol/L, ALM compound 5.0 μg/ml): No | Combination Index (Cisplatin 1 × 10^−4 mol/L, ALM compound 0.1 μg/ml): No | Combination Index (Cisplatin 1 × 10^−4 mol/L, ALM compound 0.5 μg/ml): No | Combination Index (Cisplatin 1 × 10^−4 mol/L, ALM compound 1.0 μg/ml): No | Combination Index (Cisplatin 1 × 10^−4 mol/L, ALM compound 5.0 μg/ml): No | Combination Index (Cisplatin 1 × 10^−5 mol/L, ALM compound 0.1 μg/ml): No | Combination Index (Cisplatin 1 × 10^−5 mol/L, ALM compound 0.5 μg/ml): No | Combination Index (Cisplatin 1 × 10^−5 mol/L, ALM compound 1.0 μg/ml): No | Combination Index (Cisplatin 1 × 10^−5 mol/L, ALM compound 5.0 μg/ml): No | Combination Index (Cisplatin 1 × 10^−6 mol/L, ALM compound 0.1 μg/ml): No | Combination Index (Cisplatin 1 × 10^−6 mol/L, ALM compound 0.5 μg/ml): No | Combination Index (Cisplatin 1 × 10^−6 mol/L, ALM compound 1.0 μg/ml): No | Combination Index (Cisplatin 1 × 10^−6 mol/L, ALM compound 5.0 μg/ml): No | Combination Index (Cisplatin 1 × 10^−7 mol/L, ALM compound 0.1 μg/ml): 0.431 | Combination Index (Cisplatin 1 × 10^−7 mol/L, ALM compound 0.5 μg/ml): No | Combination Index (Cisplatin 1 × 10^−7 mol/L, ALM compound 1.0 μg/ml): No | Combination Index (Cisplatin 1 × 10^−7 mol/L, ALM compound 5.0 μg/ml): No | Combination Index (Cisplatin 1 × 10^−8 mol/L, ALM compound 0.1 μg/ml): 0.155 | Combination Index (Cisplatin 1 × 10^−8 mol/L, ALM compound 0.5 μg/ml): No | Combination Index (Cisplatin 1 × 10^−8 mol/L, ALM compound 1.0 μg/ml): No | Combination Index (Cisplatin 1 × 10^−8 mol/L, ALM compound 5.0 μg/ml): No | Combination Index (Cisplatin 1 × 10^−9 mol/L, ALM compound 0.1 μg/ml): 0.093 | Combination Index (Cisplatin 1 × 10^−9 mol/L, ALM compound 0.5 μg/ml): 0.531 | Combination Index (Cisplatin 1 × 10^−9 mol/L, ALM compound 1.0 μg/ml): No | Combination Index (Cisplatin 1 × 10^−9 mol/L, ALM compound 5.0 μg/ml): No | Combination Index (Doxorubicin 1 × 10^−4 mol/L, ALM compound 0.1 μg/ml): No | Combination Index (Doxorubicin 1 × 10^−4 mol/L, ALM compound 0.5 μg/ml): No | Combination Index (Doxorubicin 1 × 10^−4 mol/L, ALM compound 1.0 μg/ml): No | Combination Index (Doxorubicin 1 × 10^−4 mol/L, ALM compound 5.0 μg/ml): No | Combination Index (Doxorubicin 1 × 10^−5 mol/L, ALM compound 0.1 μg/ml): 0.284 | Combination Index (Doxorubicin 1 × 10^−5 mol/L, ALM compound 0.5 μg/ml): No | Combination Index (Doxorubicin 1 × 10^−5 mol/L, ALM compound 1.0 μg/ml): 0.344 | Combination Index (Doxorubicin 1 × 10^−5 mol/L, ALM compound 5.0 μg/ml): 0.969 | Combination Index (Etoposide 1 × 10^−4 mol/L, ALM compound 0.1 μg/ml): 0.312 | Combination Index (Etoposide 1 × 10^−4 mol/L, ALM compound 0.5 μg/ml): 0.142 | Combination Index (Etoposide 1 × 10^−4 mol/L, ALM compound 1.0 μg/ml): 0.473 | Combination Index (Etoposide 1 × 10^−4 mol/L, ALM compound 5.0 μg/ml): 0.335 | Combination Index (Etoposide 1 × 10^−5 mol/L, ALM compound 0.1 μg/ml): No | Combination Index (Etoposide 1 × 10^−5 mol/L, ALM compound 0.5 μg/ml): 1.136 | Combination Index (Etoposide 1 × 10^−5 mol/L, ALM compound 1.0 μg/ml): No | Combination Index (Etoposide 1 × 10^−5 mol/L, ALM compound 5.0 μg/ml): No | Combination Index (Etoposide 1 × 10^−6 mol/L, ALM compound 0.1 μg/ml): No | Combination Index (Etoposide 1 × 10^−6 mol/L, ALM compound 0.5 μg/ml): No | Combination Index (Etoposide 1 × 10^−6 mol/L, ALM compound 1.0 μg/ml): No | Combination Index (Etoposide 1 × 10^−6 mol/L, ALM compound 5.0 μg/ml): No | Combination Index (Etoposide 1 × 10^−7 mol/L, ALM compound 0.1 μg/ml): No | Combination Index (Etoposide 1 × 10^−7 mol/L, ALM compound 0.5 μg/ml): No | Combination Index (Etoposide 1 × 10^−7 mol/L, ALM compound 1.0 μg/ml): No | Combination Index (Etoposide 1 × 10^−7 mol/L, ALM compound 5.0 μg/ml): No | Combination Index (Etoposide 1 × 10^−8 mol/L, ALM compound 0.1 μg/ml): 0.414 | Combination Index (Etoposide 1 × 10^−8 mol/L, ALM compound 0.5 μg/ml): 0.910 | Combination Index (Etoposide 1 × 10^−8 mol/L, ALM compound 1.0 μg/ml): No | Combination Index (Etoposide 1 × 10^−8 mol/L, ALM compound 5.0 μg/ml): No | Combination Index (Etoposide 1 × 10^−9 mol/L, ALM compound 0.1 μg/ml): 0.318 | Combination Index (Etoposide 1 × 10^−9 mol/L, ALM compound 0.5 μg/ml): 0.829 | Combination Index (Etoposide 1 × 10^−9 mol/L, ALM compound 1.0 μg/ml): No | Combination Index (Etoposide 1 × 10^−9 mol/L, ALM compound 5.0 μg/ml): No | Combination Index (Etoposide 1 × 10^−10 mol/L, ALM compound 0.1 μg/ml): 0.267 | Combination Index (Etoposide 1 × 10^−10 mol/L, ALM compound 0.5 μg/ml): 0.494 | Combination Index (Etoposide 1 × 10^−10 mol/L, ALM compound 1.0 μg/ml): No | Combination Index (Etoposide 1 × 10^−10 mol/L, ALM compound 5.0 μg/ml): No | Combination Index (Irinotecan 1 × 10^−3 mol/L, ALM compound 0.1 μg/ml): 1.133 | Combination Index (Irinotecan 1 × 10^−3 mol/L, ALM compound 0.5 μg/ml): 0.604 | Combination Index (Irinotecan 1 × 10^−3 mol/L, ALM compound 1.0 μg/ml): 0.531 | Combination Index (Irinotecan 1 × 10^−3 mol/L, ALM compound 5.0 μg/ml): 0.611 | Combination Index (Irinotecan 1 × 10^−4 mol/L, ALM compound 0.1 μg/ml): 0.205 | Combination Index (Irinotecan 1 × 10^−4 mol/L, ALM compound 0.5 μg/ml): 0.136 | Combination Index (Irinotecan 1 × 10^−4 mol/L, ALM compound 1.0 μg/ml): 0.053 | Combination Index (Irinotecan 1 × 10^−4 mol/L, ALM compound 5.0 μg/ml): 0.128 | Combination Index (Irinotecan 1 × 10^−5 mol/L, ALM compound 0.1 μg/ml): No | Combination Index (Irinotecan 1 × 10^−5 mol/L, ALM compound 0.5 μg/ml): 0.682 | Combination Index (Irinotecan 1 × 10^−5 mol/L, ALM compound 1.0 μg/ml): No | Combination Index (Irinotecan 1 × 10^−5 mol/L, ALM compound 5.0 μg/ml): No | Combination Index (Irinotecan 1 × 10^−6 mol/L, ALM compound 0.1 μg/ml): No | Combination Index (Irinotecan 1 × 10^−6 mol/L, ALM compound 0.5 μg/ml): No | Combination Index (Irinotecan 1 × 10^−6 mol/L, ALM compound 1.0 μg/ml): No | Combination Index (Irinotecan 1 × 10^−6 mol/L, ALM compound 5.0 μg/ml): No | Combination Index (Irinotecan 1 × 10^−7 mol/L, ALM compound 0.1 μg/ml): No | Combination Index (Irinotecan 1 × 10^−7 mol/L, ALM compound 0.5 μg/ml): No | Combination Index (Irinotecan 1 × 10^−7 mol/L, ALM compound 1.0 μg/ml): No | Combination Index (Irinotecan 1 × 10^−7 mol/L, ALM compound 5.0 μg/ml): No | Combination Index (Irinotecan 1 × 10^−8 mol/L, ALM compound 0.1 μg/ml): No | Combination Index (Irinotecan 1 × 10^−8 mol/L, ALM compound 0.5 μg/ml): 0.500 | Combination Index (Irinotecan 1 × 10^−8 mol/L, ALM compound 1.0 μg/ml): No | Combination Index (Irinotecan 1 × 10^−8 mol/L, ALM compound 5.0 μg/ml): No | Combination Index (Irinotecan 1 × 10^−9 mol/L, ALM compound 0.1 μg/ml): No | Combination Index (Irinotecan 1 × 10^−9 mol/L, ALM compound 0.5 μg/ml): No | Combination Index (Irinotecan 1 × 10^−9 mol/L, ALM compound 1.0 μg/ml): No | Combination Index (Irinotecan 1 × 10^−9 mol/L, ALM compound 5.0 μg/ml): No | Combination Index (Irinotecan 1 × 10^−10 mol/L, ALM compound 0.1 μg/ml): 0.061 | Combination Index (Irinotecan 1 × 10^−10 mol/L, ALM compound 0.5 μg/ml): No | Combination Index (Irinotecan 1 × 10^−10 mol/L, ALM compound 1.0 μg/ml): No | Combination Index (Irinotecan 1 × 10^−10 mol/L, ALM compound 5.0 μg/ml): No
